Reference: patent publication US4317817A, “Novel steroid 5α-reductase inhibitors” (Richardson-Merrell Inc., priority 1980, dated 1982)

How the values were obtained:
5α-reductase = assay: Affinity (Ki, Km) for 5α-reductase; type: biochemical
From the text: The potency of any enzyme inhibitor is often expressed in terms of its inhibition constant, Ki, which is defined mathematically in terms of established relationships of enzyme-catalyzed reaction rates to inhibitor and substrate concentrations. […] In the case of the substrate, the corresponding value is known as the Km, the relationship to combining power being roughly the same.

preputial glands = assay: Preputial gland weight in castrated male rats treated with testosterone; type: in vivo; conditions: 200 mg/kg gavage every 8 hours for 8 days plus testosterone 0.6 mg/rat s.c. daily; compared to control rats
ventral prostate = assay: Prostate weight in castrated male rats treated with testosterone (benign prostatic hypertrophy procedure); type: in vivo; conditions: 200 mg/kg gavage every 8 hours for 8 days plus testosterone 0.6 mg/rat s.c. daily; compared to testosterone only (Group II)
Description: The effectiveness of the present compounds for the treatment of benign prostatic hypertrophy can be illustrated by the following procedure using 3 groups of castrated male rats. Starting 10 days after castration, Test Group I (5 animals) received 200 mg/kg of (5α,20R) -4-diazo-21-hydroxy-20-methylpregnan-3-one, given by gavage every 8 hours for 8 days as a suspension in 0.25 % aqueous Methocel. Starting 8 hours after the first dose of test compound, the animals also received testosterone daily at a dose of 0.6 mg/rat s.c. in olive oil. The last dose of test compound was administered 8 hours after the last dose of testosterone and the animals were sacrificed 8 hours later. Test Group II (12 animals) received only the testosterone treatment described above while the third group of rats (10 animals) served as controls and received the oral and s.c. vehicles only. At sacrifice, the ventral prostate was removed and weighed.

[1] = test system: testosterone 5α-reductase; assay: Inhibition of 5α-reductase isolated from rat prostate gland (prostate microsomes, 4-14C-testosterone); type: biochemical; conditions: testosterone 2×10^-6 M, microsomes equivalent to 180 mg fresh tissue

**Q.** For `CC(CO)[C@H]1CC[C@H]2[C@@H]3CCC4=CC(=O)CC[C@]4(C)[C@H]3CC[C@]12C` (stereo partly drawn) [reference compound], which Ki (5α-reductase) is on record?
**A.** 220 nM

**Q.** For `C[C@@H](CO)[C@H]1CC[C@H]2[C@@H]3CC[C@H]4C(=[N+]=[N-])C(=O)CC[C@]4(C)[C@H]3CC[C@]12C` [(5α,20R)-4-Diazo-21-hydroxy-20-methylpregnan-3-one], which “weights of preputial glands” value (preputial glands) is on record?
**A.** significantly less than weights of preputial glands of the control rats

**Q.** And the “prostatic weight (ventral prostate)” value (ventral prostate)?
**A.** significant reduction in prostatic weight

**Q.** What about the “inhibition of the conversion of testosterone to 5α-reduced products” value ([1]; inhibitor 3×10^-7 M) of the same compound?
**A.** 75%

**Q.** And the “inhibition of the conversion of testosterone to DHT and androstanediol (ADIOL) overall” value ([1]; inhibitor 3×10^-8 M)?
**A.** 49%

**Q.** `C[C@]12CC[C@H]3[C@@H](CCC4=CC(=O)CC[C@@]43C)[C@@H]1CC[C@@H]2O` [testosterone, reference compound] was tested. Which Km (5α-reductase; substrate) did it give?
**A.** 1 µM

**Q.** How did the Ki (5α-reductase) turn out when `C[C@H](CO)[C@H]1CC[C@H]2[C@@H]3CC[C@H]4C(=[N+]=[N-])C(=O)CC[C@]4(C)[C@H]3CC[C@]12C` was run?
**A.** 35 nM

**Q.** And the “affinity for the enzyme relative to the substrate (testosterone)” value (5α-reductase; vs Km of testosterone)?
**A.** 29 times

**Q.** And the “potency relative to the previous inhibitor” value (5α-reductase; vs previously known inhibitor of the comparison)?
**A.** 6.3 times
